Calls of active or inactive are those of the source.
Assays:
Settings in all cases: time 14.0 day
Lin-BM = test: Inhibition of JMJD3 expression in Bl6/J female eGFP-expressing mouse Lin-BM cells at 100 nM incubated for 14 days by immuno-cytochemistry analysis; format: functional, cell-based
[1] = biological target: Lysine-specific demethylase 6B (Mus musculus) (UniProt Q5NCY0); test: Inhibition of JMJD3 expression in Bl6/J female eGFP-expressing mouse Lin-BM cells assessed as reduction in hepatic differentiation at 100 nM incubated for 14 days by immuno-cytochemistry analysis; format: cell-based
Chain of Lysine-specific demethylase 6B (Mus musculus) (Q5NCY0 whole entry): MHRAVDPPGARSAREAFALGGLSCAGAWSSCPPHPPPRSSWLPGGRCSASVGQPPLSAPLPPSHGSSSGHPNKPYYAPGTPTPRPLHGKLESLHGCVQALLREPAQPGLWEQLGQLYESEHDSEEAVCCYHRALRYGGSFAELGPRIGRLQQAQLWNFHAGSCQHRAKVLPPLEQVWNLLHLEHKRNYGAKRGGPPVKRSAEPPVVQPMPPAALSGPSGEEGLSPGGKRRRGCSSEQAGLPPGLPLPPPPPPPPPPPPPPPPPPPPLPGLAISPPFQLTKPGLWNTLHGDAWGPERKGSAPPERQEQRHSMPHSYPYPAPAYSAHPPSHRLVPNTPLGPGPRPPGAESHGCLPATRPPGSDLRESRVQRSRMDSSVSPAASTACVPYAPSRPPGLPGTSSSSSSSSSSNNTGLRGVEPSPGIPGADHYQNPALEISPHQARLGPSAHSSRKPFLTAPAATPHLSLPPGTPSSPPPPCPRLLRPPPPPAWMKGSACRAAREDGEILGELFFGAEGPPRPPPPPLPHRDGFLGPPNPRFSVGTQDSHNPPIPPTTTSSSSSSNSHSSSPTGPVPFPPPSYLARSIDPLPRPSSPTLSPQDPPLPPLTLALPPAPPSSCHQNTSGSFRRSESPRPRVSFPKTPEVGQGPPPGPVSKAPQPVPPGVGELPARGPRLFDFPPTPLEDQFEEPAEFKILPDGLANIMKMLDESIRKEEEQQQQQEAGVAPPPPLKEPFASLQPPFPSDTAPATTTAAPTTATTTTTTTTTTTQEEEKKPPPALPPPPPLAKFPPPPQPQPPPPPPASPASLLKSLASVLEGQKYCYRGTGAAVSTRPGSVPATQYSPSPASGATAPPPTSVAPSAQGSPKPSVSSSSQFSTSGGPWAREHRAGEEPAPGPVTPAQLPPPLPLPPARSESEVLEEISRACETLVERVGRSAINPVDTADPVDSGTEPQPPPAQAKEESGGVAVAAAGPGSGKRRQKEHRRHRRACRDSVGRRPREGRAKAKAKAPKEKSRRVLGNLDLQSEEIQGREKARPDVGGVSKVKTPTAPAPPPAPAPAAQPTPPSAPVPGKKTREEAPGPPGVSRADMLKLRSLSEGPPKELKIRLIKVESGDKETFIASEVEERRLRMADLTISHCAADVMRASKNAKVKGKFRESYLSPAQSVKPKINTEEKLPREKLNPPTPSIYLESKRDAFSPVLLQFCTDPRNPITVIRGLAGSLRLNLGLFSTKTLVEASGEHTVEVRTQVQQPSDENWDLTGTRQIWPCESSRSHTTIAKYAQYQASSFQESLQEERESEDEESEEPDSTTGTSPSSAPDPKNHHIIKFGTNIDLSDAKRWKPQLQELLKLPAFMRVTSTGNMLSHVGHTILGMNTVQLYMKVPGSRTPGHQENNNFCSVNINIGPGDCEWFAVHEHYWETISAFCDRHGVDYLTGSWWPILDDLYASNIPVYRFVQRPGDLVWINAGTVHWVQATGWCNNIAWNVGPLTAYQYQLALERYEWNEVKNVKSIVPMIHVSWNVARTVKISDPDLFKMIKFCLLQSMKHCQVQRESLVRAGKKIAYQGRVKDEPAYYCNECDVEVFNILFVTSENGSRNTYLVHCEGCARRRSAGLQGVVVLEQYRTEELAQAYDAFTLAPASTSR

[2] = biological target: Lysine-specific demethylase 6B (Mus musculus) (UniProt Q5NCY0); test: Inhibition of JMJD3 expression in Bl6/J female eGFP-expressing mouse Lin-BM cells assessed as H3K27me3 enrichments level at promoters of HNF4-alpha at 100 nM incubated for 14 days by ChIP-qPCR method; format: cell-based
[3] = biological target: Lysine-specific demethylase 6B (Mus musculus) (UniProt Q5NCY0); test: Inhibition of JMJD3 expression in Bl6/J female eGFP-expressing mouse Lin-BM cells assessed as H3K27me3 enrichments level at promoters of HNF3-alpha at 100 nM incubated for 14 days by ChIP-qPCR method; format: cell-based
[4] = biological target: Lysine-specific demethylase 6B (Mus musculus) (UniProt Q5NCY0); test: Inhibition of JMJD3 expression in Bl6/J female eGFP-expressing mouse Lin-BM cells assessed as H3K27me3 enrichments level at promoters of HNF3-beta at 100 nM incubated for 14 days by ChIP-qPCR method; format: cell-based
[5] = biological target: Lysine-specific demethylase 6B (Mus musculus) (UniProt Q5NCY0); test: Inhibition of JMJD3 expression in Bl6/J female eGFP-expressing mouse Lin-BM cells assessed as H3K27me3 enrichments level at promoters of HNF1-alpha at 100 nM incubated for 14 days by ChIP-qPCR method; format: cell-based
[6] = biological target: Lysine-specific demethylase 6B (Mus musculus) (UniProt Q5NCY0); test: Inhibition of JMJD3 expression in Bl6/J female eGFP-expressing mouse Lin-BM cells assessed as H3K27me3 enrichments level at promoters of CEBP-alpha at 100 nM incubated for 14 days by ChIP-qPCR method; format: cell-based
[7] = biological target: Lysine-specific demethylase 6B (Mus musculus) (UniProt Q5NCY0); test: Inhibition of JMJD3 expression in Bl6/J female eGFP-expressing mouse Lin-BM cells assessed as H3K27me3 enrichments level at promoters of GATA4 at 100 nM incubated for 14 days by ChIP-qPCR method; format: cell-based
[8] = biological target: Lysine-specific demethylase 6B (Mus musculus) (UniProt Q5NCY0); test: Inhibition of JMJD3 expression in Bl6/J female eGFP-expressing mouse Lin-BM cells assessed as prevention of loss of H3K27me3 chromatin mark at 100 nM incubated for 14 days by immuno-cytochemical analysis; format: cell-based

Measured: inhibition

CCOC(=O)CCNc1cc(N2CCc3ccccc3CC2)nc(-c2ccccn2)n1
active: Lin-BM | [1] | [2] | [3] | [4] | [5] | [6] | [7] | [8]

From ChEMBL document CHEMBL5674872, “JMJD3 aids in reprogramming of bone marrow progenitor cells to hepatic phenotype through epigenetic activation of hepatic transcription factors” (PLoS One, 2017)
